Literature values as cited in US20090311266A1, “Inhibitors of the endothelin signalling pathway and alphavbeta3 integrin receptor antagonists for combination therapy” (BASF AKTIENGESELLSCHAFT, priority 1999, published 2009).

How the values were obtained:
[1] = test system: pigs with coronary artery stents; settings: 28 days of oral treatment (b.i.d.)
[2] = test system: ischemic complications after coronary interventions
[3] = test system: porcine coronary injury model

Molecule: CCCCN(CCCC)C(=O)CN1C[C@H](c2ccc3c(c2)OCO3)[C@@H](C(=O)O)[C@@H]1c1ccc(OC)cc1 (relative stereo) [A 127722, trans-trans-2-(4-methoxyphenyl)-4-(3,4-methylendioxyphenyl)-1-(2-(N,N-dibutylamino)-2-oxoethyl)-pyrrolidine-3-carboxylic acid]
- maximal reduction in neointima formation [1]: about 30%

Molecule: abciximab: anti-platelet integrin αIIbβ3 antibody abciximab (c7E3 Fab, Reopro®)
- suppression of ischemic complications (endpoints death, MI or repeat intervention) [2]: sustained suppression of ischemic complications

Molecule: cyclo[R-G-D-Mamb-A] [XJ 735]
- less lumen stenosis [3]: 2.9 fold
- reduction of neointimal hyperplasia [3]: 43%
